US9211350B2, “Compound with amyloid affinity” (priority 2011, dated 2015)

Columns and labels:
[1] = tested on: amyloid in brain of AD patients; test: Autoradiography of brain slice of AD patients; type: binding, human; conditions: 5 μm brain slice of AD patients, 10 kBq/mL, compared with immunostaining by anti-amyloid antibody
Protocol: The following experiment was carried out in order to examine whether the compound of the present invention can image amyloid in brain of AD patients.
• (1) A 5 μm thick brain slice of AD patients was prepared from a brain tissue of AD patients available from Analytical Biological Services Inc. (United States). • (2) The brain slice prepared for each test substance was immersed in PBS 3 times in total: 15 minutes, 5 minutes and 5 minutes in this order. Next, it was immersed in a 1% BSA-containing PBS for 30 minutes to conduct hydrophilization. As the test substance, a 1% BSA-containing PBS containing each of Compound 1, Compound 2, Compound 3, Compound 4, Compound 5 and [^123I]-IMPY (radioactive concentration: 10 kBq/mL) was prepared and used. The above hydrophilized brain slice was immersed at room temperature in each of the test substance solutions. Then, it was immersed in a 1% BSA-containing PBS for 5 minutes, next in a PBS for 5 minutes and further in a PBS for 5 minutes to wash the brain slices. The washed brain slice was sufficiently dried, and then exposed to an imaging plate for 16 hours, and then autoradiogram image analysis was carried out by use of a Bio-imaging Analyzer (type: BAS-2500; manufactured by FUJIFILM Corporation) (FIG. 7, FIG. 8, FIG. 9, FIG. 10, FIG. 11, FIG. 12). • (3) Separately, immunostaining at a site of amyloid deposition with an anti-amyloid antibody was carried out using adjacent slices which were subjected to hydrophilization in accordance with the same procedures as the above. Anti-Human Amyloidβ(N) (82E1) Mouse IgG MoAb (Immuno-Biological Laboratories Co., Ltd.) was used as the anti-amyloid antibody, and Anti-Mouse IgG (H+L) Goat IgG Fab′-HRP (Immuno-Biological Laboratories Co., Ltd.) was used as a secondary antibody. The site of amyloid deposition was detected by applying the DAB+(3,3′-diaminobenzidinetetrahydrochloride) substrate kit (Dako) to HRP attached to the secondary antibody (FIG. 13). Results

amyloid aggregates = test: In vitro binding test with gray matter and white matter homogenate of brain of AD patients; parameters: species or system human; conditions: for Radioactive amount attached to brain tissue of AD patients (%), Gray matter: brain gray matter homogenate of AD patients (amyloid deposition); for Radioactive amount attached to brain tissue of AD patients (%), Gray matter / Radioactive amount attached to brain tissue of AD patients (%), White matter: 100 μg protein/mL, 3 hours, 22° C., relative to added radioactivity; for Radioactive amount attached to brain tissue of AD patients (%), White matter: brain white matter homogenate of AD patients (no amyloid); for Binding property to amyloid deposited in the brain (in words): gray matter versus white matter homogenate of AD patients
Protocol: Binding properties to amyloid aggregates of Compound 1, Compound 3, Compound 4, Compound 5 and [^123I]-IMPY were evaluated by the following in vitro binding test.
The assay was conducted using a gray matter homogenate of brain of AD patients and a white matter homogenate of brain of AD patients, which were prepared from a brain tissue (Frontal lobe) of AD patients commercially available from Analytical Biological Services Inc. (United States).
To each well of a 96-well microplate, 150 μL of a 0.1% BSA-containing 5 mmol/L phosphate buffer saline solution and 50 μL of a sample solution prepared above were added. Two wells were afforded to each sample solution. Of the two wells in which each sample solution was added, one received 50 μL of the brain grey matter homogenate of AD patients, and the other received 50 μL of the brain white matter homogenate of AD patients (final concentration: 100 μg protein/mL), so that the reaction was initiated. After the reaction solution was shaken for 3 hours (22° C., 400 rpm), a glass fiber filter (Multiscreen HTS FB, manufactured by Millipore) was used to filter the reaction solution. The filtrated filter was washed with a 0.1% BSA-containing 5 mmol/L phosphate buffer saline solution (200 μL, 3 times), and then radioactivity remained in the filter was measured with an Autowell Gammma system (type: ARC-7001, manufactured by Aloka). The ratio (%) of the radioactivity attached to the brain grey matter homogenate of AD patients or the brain white matter homogenate of AD patients relative to the added-radioactivity was calculated from the resulting count. Meanwhile, the above was repeated 3 times.

[2] = Measurement of transferability into brain and clearance (radioactive accumulation in brain); conditions: rats; for Radioactive accumulation per unit weight (% ID/g) in brain, After 2 min. / Radioactive accumulation per unit weight (% ID/g) in brain, After 60 min.: intravenous injection (tail vein); for Radioactive accumulation per unit weight (% ID/g) in brain, After 2 min.: 2 minutes after the injection; for Radioactive accumulation per unit weight (% ID/g) in brain, After 60 min.: 60 minutes after the injection; for Transferability to brain and clearance from brain (in words): intravenous injection, 2 and 60 minutes
Protocol: Using Compound 1, Compound 2, Compound 3, Compound 4 and Compound 5, radioactive accumulation in brain of male Wistar rats (8-week old) was measured.
A solution in which Compound 1, Compound 2, Compound 4 and Compound 5 were respectively dissolved in a physiological saline solution containing 50 mmol/L of L-cysteine hydrochloride was prepared, to obtain a sample solution (radioactive concentration: all 37 MBq/mL). A solution in which Compound 3 was dissolved in a physiological saline solution containing 10% ethanol and 50 mmol/L of L-cysteine hydrochloride was prepared, to obtain a sample solution (radioactive concentration: 37 MBq/mL). The sample solution was injected under non-anesthesia into the tail vein of male Wistar rats (8-week old) (dosage: 0.2 mL, dosed radioactivity: 7.4 MBq equivalent). The rats were sacrificed by decapitating under non-anesthesia to sample bloods and brains 2 and 60 minutes after the injection. Brains were subjected to measurement of mass of brains and further subjected to measurement of radioactivity (hereinafter referred to as A in this Example) with a single channel analyzer (detector type: SP-20 manufactured by OHYO KOKEN KOGYO Co., Ltd.). Further, the radioactivity level of the rest of the whole body including blood was measured in the same manner as above (hereinafter referred to as B in this Example). Using these measurement results, the amount of radioactive accumulation per unit weight of brain (% ID/g) at the respective time points after the dissection were calculated in accordance with the following formula (2).
The same procedure as the above was carried out to calculate the amount of radioactive accumulation per unit weight of brain (% ID/g) at the respective time points after the dissection.
Meanwhile, in this Example, three animals were used for the experiment at the respective time points.

[3] = Measurement of partition coefficient based on the octanol extraction method; type: physicochemical; conditions: 1-octanol/water; average of 200 μL, 400 μL and 800 μL samples
Protocol: Partition coefficients based on the octanol extraction method (hereinafter referred to as log Poctanol) were measured, which are generally known as an indicator of permeability of compounds through the blood-brain barrier (hereinafter referred to as BBB).
Compound 1, Compound 2, Compound 3 and Compound 4 were adjusted to about 1 MBq/mL respectively using a water saturated 1-octanol solution to obtain sample solutions. Each sample solution in an amount of 30 μL was added to three microtubes. The three microtubes to which each sample solution was added were supplemented with both water saturated 1-octanol and 1-octanol saturated water so as to make the volume to be 200 μL, 400 μL or 800 μL, respectively (referred to as 200 μL sample, 400 μL sample and 800 μL sample, respectively). Each microtube was subjected to stirring, and then was shaken for 5 minutes (20 to 25±2° C., 20 rpm/min). Next, the mixture in each microtube was centrifuged (23° C., 3000 g×20 min.) with a centrifuge (type: T2-MC, manufactured by BECKMAN), and then 50 μL each of the octanol layer and the water layer was obtained, and subjected to measurement of radioactivity with an Autowell Gamma system (Type: ARC-7001, manufactured by Aloka). Using the obtained count, log Poctanol was calculated in accordance with the following equation (1). Meanwhile, the value of log Poctanol was an average value of the values which were respectively calculated for the 200 μL sample, the 400 μL sample and the 800 μL sample.

Row | Compound | Binding to the site of amyloid deposition on autoradiogram (in words) [1] | Radioactive amount attached to brain tissue of AD patients (%), Gray matter (amyloid aggregates) [%] | Radioactive amount attached to brain tissue of AD patients (%), White matter (amyloid aggregates) [%] | Binding property to amyloid deposited in the brain (in words) (amyloid aggregates) | Radioactive accumulation per unit weight (% ID/g) in brain, After 2 min. [2] [% ID/g] | Radioactive accumulation per unit weight (% ID/g) in brain, After 60 min. [2] [% ID/g] | Transferability to brain and clearance from brain (in words) [2] | logPoctanol value [3]
1 | [123I]c1ccc2nc(-c3ccc(-n4ccnn4)nc3)cn2c1 [Compound 1, [^123I]-6-iodo-2-[2-(1H-1,2,3-triazole-1-yl)pyridine-5-yl]imidazo[1,2-a]pyridine] | binding of the compounds to the site of amyloid deposition confirmed by immunostaining was also be confirmed | 2.59 | 0.48 | have a binding property to amyloid deposited in the brain | 1.226 | 0.028 | excellent transferability to brain and rapid clearance from brain | 2.10
2 | CN(C)c1ccc(-c2cn3cc(I)ccc3n2)cc1 [[^123I]-IMPY, 6-iodo-2-[4′-(N,N-dimethylamino)phenyl]imidazo[1,2-a]pyridine, reference compound] | binding of the compounds to the site of amyloid deposition confirmed by immunostaining was also be confirmed | 1.97 | 0.77 |  | 1.644 | 0.085 |  | 
3 | [^123I]-6-iodo-2-[2-(1H-1,2,4-triazole-1-yl)pyridine-5-yl]imidazo[1,2-a]pyridine [Compound 4] | binding of the compounds to the site of amyloid deposition confirmed by immunostaining was also be confirmed | 1.13 | 0.17 | have a binding property to amyloid deposited in the brain | 1.287 | 0.056 | excellent transferability to brain and rapid clearance from brain | 2.23
4 | [^123I]-6-iodo-2-[2-(1H-imidazole-1-yl)pyridine-5-yl]imidazo[1,2-a]pyridine [Compound 3] | binding of the compounds to the site of amyloid deposition confirmed by immunostaining was also be confirmed | 2.00 | 0.83 | have a binding property to amyloid deposited in the brain | 1.186 | 0.246 | excellent transferability to brain and rapid clearance from brain | 1.91
5 | [^123I]-6-iodo-2-[2-(2H-1,2,3-triazole-2-yl)pyridine-5-yl]imidazo[1,2-a]pyridine [Compound 2] | binding of the compounds to the site of amyloid deposition confirmed by immunostaining was also be confirmed |  |  |  | 1.160 | 0.027 | excellent transferability to brain and rapid clearance from brain | 2.05
6 | [^123I]-6-iodo-2-[2-(pyrazole-1-yl)pyridine-5-yl]imidazo[1,2-a]pyridine [Compound 5] | binding of the compounds to the site of amyloid deposition confirmed by immunostaining was also be confirmed | 2.41 | 0.77 | have a binding property to amyloid deposited in the brain | 1.500 | 0.079 | excellent transferability to brain and rapid clearance from brain | 
